# Square brackets hold non-standard residues; d marks the D form. Peptide text beside a SMILES is read from it. pGlu = O=C1CC[C@@H](C(=O)O)N1
# Experiments:
# Rattus norvegicus [1] = organism: Rattus norvegicus; experiment: Potency of compound was determined for contraction of rat bladder relative to substance P(=1); type: functional
# Cricetinae gen. sp. = experiment: Potency of compound was determined in hamster bladder relative to substance E; type: functional
# Rattus norvegicus [2] = organism: Rattus norvegicus; experiment: Potency of compound was determined in rat vas deferens relative to substance E; type: functional
# Cavia porcellus [3] = organism: Cavia porcellus; experiment: Potency of compound was determined for contraction of guinea pig vas deferens relative to substance P(=1); type: functional
# Rattus norvegicus [4] = organism: Rattus norvegicus; experiment: Potency of compound was determined in rat duodenum relative to substance E; type: functional
# [5] = biological target: Substance-P receptor (Rattus norvegicus) (UniProt P14600); experiment: Potency for [3H]SP binding to Tachykinin receptor 1 in rat brain central nervous system (CNS); type: tissue-based
# Cavia porcellus [6] = organism: Cavia porcellus; experiment: Potency of compound was determined for contraction of guinea pig ileum relative to substance P(=1); type: functional
# Substance-P receptor (Rattus norvegicus), sequence (P14600 whole entry): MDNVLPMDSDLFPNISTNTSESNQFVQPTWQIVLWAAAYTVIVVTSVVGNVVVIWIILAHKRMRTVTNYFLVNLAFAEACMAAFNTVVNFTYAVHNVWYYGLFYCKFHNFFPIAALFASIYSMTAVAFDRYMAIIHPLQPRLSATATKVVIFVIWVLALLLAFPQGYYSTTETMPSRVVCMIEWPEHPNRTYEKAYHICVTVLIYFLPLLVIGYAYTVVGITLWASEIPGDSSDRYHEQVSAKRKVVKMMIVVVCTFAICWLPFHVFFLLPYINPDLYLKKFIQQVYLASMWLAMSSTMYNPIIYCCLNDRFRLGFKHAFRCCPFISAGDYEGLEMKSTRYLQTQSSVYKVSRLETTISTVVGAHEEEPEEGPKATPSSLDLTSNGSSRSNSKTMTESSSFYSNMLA
compound,measurement,setting,value
CC[C@H](C)[C@H](NC(=O)[C@H](Cc1ccccc1)NC(=O)[C@H](C)NC(=O)[C@H](CC(=O)O)NC(=O)[C@H](CCCCN)NC(=O)[C@H](CO)NC(=O)[C@@H]1CCCN1C(=O)[C@@H]1CCC(=O)N1)C(=O)NCC(=O)N[C@@H](CC(C)C)C(=O)N[C@@H](CCSC)C(N)=O [ELEDOISIN] ([pGlu]PSKDAFIGLM-NH2),Potency,Rattus norvegicus [1],0.96
same,Potency,Cricetinae gen. sp.,105
same,Potency,Rattus norvegicus [2],86
same,Potency,Cavia porcellus [3],0.6
same,Potency,Rattus norvegicus [4],13.9
same,Potency,[5],0.3
same,Potency,Cavia porcellus [6],0.9
